Source: patent US20150105252A1, “SUBSTITUTED PYRAZOLES AS HERBICIDES” (E I DU PONT DE NEMOURS AND COMPANY, priority 2013, published 2015)

Key:
morningglory [1] = assay: Test A postemergence; format: in vivo, Ipomoea spp.
Method in brief: (§1)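 Ratings express plant response from 0 (no effect) to 100 (complete control), judged visually against untreated controls after approximately 10 days in the greenhouse. Preemergence applications were made as directed soil sprays onto seeded loam–sand mix, and postemergence applications onto 2–10 cm plants at one- to two-leaf stage.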

crabgrass, large [2] = assay: Test A preemergence; format: in vivo, Digitaria sanguinalis; conditions: 0 to 100 scale
Method in brief: as §1

crabgrass, large [3] = assay: Test C preemergence; format: in vivo, Digitaria sanguinalis
Method in brief: (§2)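 Seeds were sown in a loam soil–sand blend and sprayed preemergence with compounds formulated in a non-phytotoxic solvent mixture containing surfactant. Postemergence plants, grown in peat/vermiculite medium to 2–18 cm (1- to 4-leaf stage), received the same formulation. After 13 to 15 days in a greenhouse, injury was rated visually against controls (0 = no effect, 100 = complete control).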

morningglory [4] = assay: Test C preemergence; format: in vivo, Ipomoea coccinea
Method in brief: as §2

ducksalad = assay: Test B flood; format: in vivo, Heteranthera limosa; conditions: 250 g ai/ha, visual rating on 0 to 100 scale (0 no effect, 100 complete control), 13 to 15 days
Method in brief: (§3)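 Flooded-pot test: compound dosed into 3 cm of standing water above soil when plants had two leaves. Visual control ratings (0–100) versus untreated plants after 13–15 d.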

nutsedge, yellow [5] = assay: Test C preemergence; format: in vivo, Cyperus esculentus
Method in brief: as §2

barnyardgrass [6] = assay: Test A postemergence; format: in vivo, Echinochloa crus-galli; conditions: Postemergence
Method in brief: as §1

chickweed = assay: Test C postemergence; format: in vivo, Stellaria media; conditions: for Chickweed plant response rating: scale 0 to 100
Text: (§4) Seeds of plant species selected from blackgrass (Alopecurus myosuroides), ryegrass, Italian (Italian ryegrass, Lolium multiflorum), wheat (winter wheat, Triticum aestivum), galium (catchweed bedstraw, Galium aparine), corn (Zea mays), crabgrass, large (large crabgrass, Digitaria sanguinalis), foxtail, giant (giant foxtail, Setaria faberii), johnsongrass (Sorghum halepense), lambsquarters (Chenopodium album), morningglory (Ipomoea coccinea), nutsedge, yellow (yellow nutsedge, Cyperus esculentus), pigweed (redroot pigweed, Amaranthus retroflexus), ragweed (common ragweed, Ambrosia elation), soybean (Glycine max), barnyardgrass (Echinochloa crus-galli), oilseed rape (Brassica napus), waterhemp (common waterhemp, Amaranthus rudis), oat, wild (wild oat, Avena fatua), kochia (Kochia scoparia), Surinam grass (Brachiaria decumbens), foxtail, green (green foxtail, Setaria viridis), goosegrass (Eleusine indica), bromegrass, downy (downy bromegrass, Bromus tectorum), nightshade (eastern black nightshade, Solanum ptycanthum), cocklebur (common cocklebur, Xanthium strumarium), cupgrass, woolly (woolly cupgrass, Eriochloa villosa), bermudagrass (Cynodon dactylon), sunflower, (common oilseed sunflower, Helianthus annuus), Russian thistle (Salsola kali), and velvetleaf (Abutilon theophrasti) were planted into a blend of loam soil and sand and treated preemergence with test chemicals formulated in a non-phytotoxic solvent mixture which included a surfactant.
(§5) At the same time, plants selected from these crop and weed species and also chickweed (common chickweed, Stellaria media), canarygrass (littleseed canarygrass, Phalaris minor), and deadnettle (henbit deadnettle, Lamium amplexicaule), were planted in pots containing Redi-Earth® planting medium (Scotts Company, 14111 Scottslawn Road, Marysville, Ohio 43041) comprising spaghnum peat moss, vermiculite, wetting agent and starter nutrients and treated with postemergence applications of test chemicals formulated in the same manner. Plants ranged in height from 2 to 18 cm (1- to 4-leaf stage) for postemergence treatments. Treated plants and controls were maintained in a greenhouse for 13 to 15 days, after which time all species were compared to controls and visually evaluated. Plant response ratings, summarized in Table C, are based on a scale of 0 to 100 where 0 is no effect and 100 is complete control. A dash (-) response means no test result.

nutsedge, yellow [7] = assay: Test C postemergence; format: in vivo, Cyperus esculentus; conditions: for Nutsedge, Yellow plant response rating: scale 0 to 100
Method in brief: as §2

rice = assay: Test B flood; format: in vivo, Oryza sativa; conditions: 250 g ai/ha, visual rating on 0 to 100 scale (0 no effect, 100 complete control), 13 to 15 days
Method in brief: as §3

velvetleaf = assay: Test C preemergence; format: in vivo, Abutilon theophrasti
Text: as §4, §5

barnyardgrass [8] = assay: Test C preemergence; format: in vivo, Echinochloa crus-galli
Text: as §4, §5

[9] = preemergence, 31 g ai/ha, scale 0 to 100 (0 no effect, 100 complete control), 13 to 15 days
[10] = preemergence, 62 g ai/ha, 13 to 15 days, scale 0 to 100, 0 = no effect, 100 = complete control
[11] = preemergence, 125 g ai/ha, scale 0 to 100, 0 is no effect, 100 is complete control
[12] = postemergence, 250 g ai/ha, scale 0 to 100 (0 no effect, 100 complete control)
[13] = postemergence, 125 g ai/ha, scale 0 to 100, 0 no effect, 100 complete control
[14] = Preemergence, 16 g ai/ha, scale 0 to 100
[15] = Postemergence, 31 g ai/ha, visually evaluated after 13 to 15 days

## Cc1cc(C(=O)NCC(F)(F)F)nn1Cc1ccnc(C(F)(F)F)c1 [Compound 74]
Morningglory [1]; Postemergence, 1000 g ai/ha, visual rating after approx. 10 days, 0 to 100 scale (0 no effect, 100 complete control)
  Morningglory plant response rating: 100
crabgrass, large [2]; Preemergence, 1000 g ai/ha, 0 no effect, 100 complete control
  Crabgrass, Large plant response rating: 100
crabgrass, large [3]; Preemergence, 250 g ai/ha
  Plant response rating (scale of 0 to 100), Crabgrass, Large: 100
crabgrass, large [3]; [9]
  Crabgrass, Large plant response rating: 98
crabgrass, large [3]; [10]
  Plant response rating, Crabgrass, Large: 100
crabgrass, large [3]; [11]
  Crabgrass, Large plant response rating: 100
Morningglory [4]; Preemergence, 250 g ai/ha
  Plant response rating (scale of 0 to 100), Morningglory: 100
Morningglory [4]; [9]
  Morningglory plant response rating: 75
Morningglory [4]; [10]
  Plant response rating, Morningglory: 100
Morningglory [4]; [11]
  Morningglory plant response rating: 100
ducksalad
  Plant response rating, Ducksalad: 75
nutsedge, yellow [5]; Preemergence, 250 g ai/ha
  Plant response rating (scale of 0 to 100), Nutsedge, Yellow: 98
nutsedge, yellow [5]; [9]
  Nutsedge, Yellow plant response rating: 15
nutsedge, yellow [5]; [10]
  Plant response rating, Nutsedge, Yellow: 60
nutsedge, yellow [5]; [11]
  Nutsedge, Yellow plant response rating: 80
Barnyardgrass [6]; 1000 g ai/ha, visual rating after approx. 10 days, 0 to 100 scale (0 no effect, 100 complete control)
  Barnyardgrass plant response rating: 90
chickweed; Postemergence, 31 g ai/ha
  Chickweed plant response rating: 20
chickweed; postemergence, 62 g ai/ha
  Chickweed plant response rating: 45
chickweed; [12]
  Plant response rating, Chickweed: 55
chickweed; [13]
  Plant response rating, Chickweed: 45
nutsedge, yellow [7]; Postemergence, 31 g ai/ha
  Nutsedge, Yellow plant response rating: 0
nutsedge, yellow [7]; postemergence, 62 g ai/ha
  Nutsedge, Yellow plant response rating: 5
nutsedge, yellow [7]; [12]
  Plant response rating, Nutsedge, Yellow: 15
nutsedge, yellow [7]; [13]
  Plant response rating, Nutsedge, Yellow: 5
rice
  Plant response rating, Rice: 0
velvetleaf; Preemergence, 250 g ai/ha
  Plant response rating (scale of 0 to 100), Velvetleaf: 100
velvetleaf; [9]
  Velvetleaf plant response rating: 45
velvetleaf; [10]
  Plant response rating, Velvetleaf: 65
velvetleaf; [11]
  Velvetleaf plant response rating: 100

## CCONC(=O)c1cc(CC)n(Cc2ccnc(C(F)(F)F)c2)n1 [Compound 77]
Morningglory [1]; Postemergence, 500 g ai/ha, visual rating after approx. 10 days, 0 to 100 scale (0 no effect, 100 complete control)
  Morningglory plant response rating: 90
Morningglory [1]; postemergence, 125 g ai/ha, about 10 days, visual rating on 0 to 100 scale (0 no effect, 100 complete control)
  Morningglory plant response rating: 100
crabgrass, large [2]; Preemergence, 500 g ai/ha, 0 no effect, 100 complete control
  Crabgrass, Large plant response rating: 100
crabgrass, large [2]; preemergence, 125 g ai/ha, visual injury, approx. 10 days
  Crabgrass, Large plant response rating: 100
crabgrass, large [3]; [14]
  Plant response rating, Crabgrass, Large: 60
crabgrass, large [3]; [9]
  Crabgrass, Large plant response rating: 85
crabgrass, large [3]; [10]
  Plant response rating, Crabgrass, Large: 100
crabgrass, large [3]; [11]
  Crabgrass, Large plant response rating: 100
ducksalad
  Plant response rating, Ducksalad: 80
nutsedge, yellow [5]; [14]
  Plant response rating, Nutsedge, Yellow: 10
nutsedge, yellow [5]; [9]
  Nutsedge, Yellow plant response rating: 10
nutsedge, yellow [5]; [10]
  Plant response rating, Nutsedge, Yellow: 25
nutsedge, yellow [5]; [11]
  Nutsedge, Yellow plant response rating: 60
Barnyardgrass [6]; 125 g ai/ha, 0 to 100 scale, 0 no effect, 100 complete control
  Barnyardgrass plant response rating: 50
Barnyardgrass [6]; 500 g ai/ha, visual rating after approx. 10 days, 0 to 100 scale (0 no effect, 100 complete control)
  Barnyardgrass plant response rating: 100
chickweed; Postemergence, 16 g ai/ha
  Plant response rating (scale of 0 to 100), Chickweed: 50
chickweed; [15]
  Plant response rating (scale of 0 to 100 where 0 is no effect and 100 is complete control), Chickweed: 50
chickweed; postemergence, 62 g ai/ha
  Chickweed plant response rating: 55
chickweed; [13]
  Plant response rating, Chickweed: 60
nutsedge, yellow [7]; Postemergence, 16 g ai/ha
  Plant response rating (scale of 0 to 100), Nutsedge, Yellow: 0
nutsedge, yellow [7]; [15]
  Plant response rating (scale of 0 to 100 where 0 is no effect and 100 is complete control), Nutsedge, Yellow: 5
nutsedge, yellow [7]; postemergence, 62 g ai/ha
  Nutsedge, Yellow plant response rating: 5
nutsedge, yellow [7]; [13]
  Plant response rating, Nutsedge, Yellow: 5
Barnyardgrass [8]; [14]
  Plant response rating, Barnyardgrass: 10
Barnyardgrass [8]; [9]
  Barnyardgrass plant response rating: 20
Barnyardgrass [8]; [10]
  Plant response rating, Barnyardgrass: 75
Barnyardgrass [8]; [11]
  Barnyardgrass plant response rating: 100
rice
  Plant response rating, Rice: 20
velvetleaf; [14]
  Plant response rating, Velvetleaf: 30
velvetleaf; [9]
  Velvetleaf plant response rating: 35
velvetleaf; [10]
  Plant response rating, Velvetleaf: 60
velvetleaf; [11]
  Velvetleaf plant response rating: 100
